Data taken from US12630573B2, “High-affinity Cu(I) ligands and methods of use thereof” (GEORGIA TECH RESEARCH CORPORATION, priority 2019, dated 2026).

How the values were obtained:
Type in all cases: binding
[1] = Molar ratio titration against BCA copper(I) complex; details: linear decrease in absorbance at 562 nm
Description: In a quartz cuvette with 1 cm path length, BCA (9.0 μL) was diluted from a 50 mM aqueous stock solution (dissolved by addition of KOH) into 3.0 mL of buffer (10 mM PIPES, 0.1 M KCl, pH 7.0, 25° C.). Furthermore, Cu(II)SO4 (5.0 μL) from a 30 mM stock solution) and sodium ascorbate (7.5 μL from a 60 mM stock solution) were added. After equilibration for 10 minutes, a UV-vis spectrum was recorded, and the solution was titrated in 1-10 μL aliquots with a 3 mM stock solution of phenPS in DMF or naphPS in DMSO. For phenPS, the endpoint occurred at 1.04 molar equivalents on the basis of the mass employed for stock solution preparation, consistent with incomplete removal of the solvent of crystallization as observed by ^1H NMR. An independent molar ratio titration against [Cu(I)MCL-2]PF6 confirmed the stock concentration as 2.88 mM rather than 3.0 mM, and the plotted Cu(I)/phenPS ratio is adjusted accordingly.

[2] = Spectrophotometric Cu(I) competition titration against BCS; details: pH 7.0, 10 mM PIPES, 0.1 M KCl, 25° C.
Description: An aqueous sodium bathocuproine disulfonate (BCS, Acros Organics) stock solution (60 mM) was prepared calibrated by competition titration against MCL-1 as previously described (Bagchi, P., et al., J. Am. Chem. Soc., 135(49) (2013)). BCS (1.50 mM), sodium ascorbate (150 μM) and CuSO4 (30 μM) were sequentially added via aqueous stock solutions to 3 mL of buffer (10 mM PIPES, 0.1 M KCl, pH 7.0) in a 1-cm path length cuvette equipped with magnetic stirring, and a UV-Vis absorption spectrum was recorded from 650-380 nm. PhenPS was added in 5 μM aliquots from a 2.88 mM stock solution in DMF and an absorption spectrum was acquired after a 2 min equilibration period following each aliquot. The titration was conducted in duplicate, and each dataset was analyzed by nonlinear least squares fitting over the spectral range from 650-400 nm using the Specfit software package from Spectrum Software Associates. The stability constant for naphPS was determined similarly except that the ligand was delivered from a 3.0 mM stock solution in DMSO and a 5-minute equilibration period was required to obtain a stable spectrum after each aliquot.
An aqueous sodium bathocuproine disulfonate (BCS, Acros Organics) stock solution (60 mM) was prepared and calibrated by competition titration against MCL-1 as previously described (Bagchi, P., et al., J. Am. Chem. Soc., 135(49) (2013)). […]

[3] = Molar ratio titration with [Cu(I)MCL-2]PF6; details: 10 mM PIPES, 0.1 M KCl, pH 7; fit 250-400 nm
Description: In a quartz cuvette with 1 cm path-length, a 50 μM aqueous solution of phenPS was prepared by diluting the ligand from a stock solution (3 mM in DMF) into 2.95 mL of aqueous buffer (10 mM PIPES, 0.1 M KCl, pH 7) under rapid stirring. After recording a UV-vis absorption spectrum from 240 to 500 nm, [Cu(I)MCL-2]PF6 (3 mM stock solution in water) was added in 5 μM aliquots up to 95 μM. The absorption spectrum was recorded after a 1 min mixing period following each aliquot. To derive an accurate reference spectrum of Cu(I)-MCL-2 complex, a separate titration was conducted using pure DMF in place of the phenPS stock solution. The exact concentration of the phenPS stock solution was calibrated against [Cu(I)MCL-2]PF6 by plotting the apparent fractional saturation of the ligand, calculated as f=(A−A0)/(Asat−A0) where A corresponds to the absorbance at 290 nm and the subscripts 0 and sat refer to the spectra at 0 and 50 μM Cu(I), versus nominal molar equivalents of Cu(I) for the first 10 data points (0-0.9 molar equivalents). After concentration correction and subtraction of the DMF background absorption, non-linear least-squares fitting of the titration dataset over the wavelength range 250-400 nm was performed using a fixed log β11 of 21.2 for Cu(I)-phenPS to yield a log β12=31.86±0.07 (log K2=10.66±0.07) for Cu(I)2phenPS.

Compound	removal of Cu(I) from BCA complex [1]	dissociation constant Kd of Cu(I) complex [2] [zM]	log β12 for Cu(I)2phenPS [3]
CP(C)(=S)CP(CP(C)(C)=S)c1cccc2cccc(P(CP(C)(C)=S)CP(C)(C)=S)c12 [naphPS, 1,8-Bis(bis(dimethylphosphorothioylmethyl)phosphino)naphthalene]	quantitative removal of Cu(I)		
CP(C)(=S)CP(CP(C)(C)=S)c1ccccc1P(CP(C)(C)=S)CP(C)(C)=S [phenPS, 1,2-Bis(bis(dimethylphosphorothioylmethyl)phosphino)benzene]	quantitative removal of Cu(I)	0.6	31.86±0.07
